Consider 6 compounds from US9982005B2, “Macrolides and methods of their preparation and use” (President and Fellows of Harvard College, priority 2013, dated 2018).

Holding throughout (type): cell-based
For experiment [1], the system named is S. aureus (Newman, clinical isolate). Put plainly: MIC, S. aureus Newman. The note with it: Staphylococcus aureus. The source says:
(§1) We have collected MIC data for a total of 50 novel macrolides that this platform has produced against over 21 unique strains of B. subtilis, E. coli, S. aureus, S. pneumoniae, and H. influenzae, including several multidrug-resistant strains, with a special focus on macrolide resistant mechanisms (vide supra). Azithromycin was included as a control macrolide. CLSI standard procedures for broth dilution MIC determination were used. […] These genotypes can be constitutive or inducible. The finding that C4-epi (unnatural) isomers of the “azaketolide” macrolide class have enhanced activities relative to C4 natural isomers is very exciting.

The test system of a further experiment is E. coli (MC4100). Put plainly: MIC, E. coli MC4100. The note with it: Escherichia coli.
Description: as §1

In a further experiment the test system is E. coli strains. Put plainly: MIC against E. coli strains (Table M7). As to conditions: Escherichia coli, ATCC25922, E. coli ATCC 25922. The gist of the method:
(§2)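 Following CLSI guidelines, each compound was serially diluted in broth against the bacterial strain and the MIC recorded. Azithromycin was included in parallel as a comparator macrolide.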

For another experiment, the system named is S. aureus strains. Put plainly: MIC against S. aureus strains (Table M7). As to conditions: Staphylococcus aureus. The essentials:
as §2

In the next experiment the test system is S. pneumoniae strains. The experiment is described as follows: MIC against S. pneumoniae strains (Tables M7, M8). The note with it: Streptococcus pneumoniae. The text has this: CLSI standard procedures for broth dilution MIC determination were used. […] These genotypes can be constitutive or inducible.
In a further experiment the test system is E. faecalis strains. Put plainly: MIC against E. faecalis strains (Table M8). The note with it: Enterococcus faecalis, E. faecalis 29212.
In a further experiment the test system is A. baumannii strains. Put plainly: MIC against A. baumannii strains (Table M8). The note with it: Acinetobacter baumannii, BAA747, A. baumannii BAA747-1.
For the next experiment, the system named is K. pneumoniae strains. Put plainly: MIC against K. pneumoniae strains (Table M8). The note with it: Klebsiella pneumoniae, K. pneumoniae 10031.
A further experiment deals with H. influenzae strains. The experiment is described as follows: MIC against H. influenzae strains (Table M8). As to conditions: Haemophilus influenzae. The gist of the method: as §2
For experiment [2], the system named is SA101 S. aureus ATCC29213. Put plainly: broth dilution MIC, S. aureus SA101. As to conditions: Staphylococcus aureus, ATCC29213, SA101 S. aureus ATCC29213; read-out: MIC. The gist of the method:
as §2

For another experiment, the system named is EC107 E. coli ATCC25922. The experiment is described as follows: broth dilution MIC, E. coli EC107. As to conditions: Escherichia coli, read-out: MIC. The gist of the method:
as §2
For orientation: In broth dilution the organism is exposed to a series of concentrations in liquid medium.

In a further experiment the test system is EC878 E. coli tolC. The experiment is described as follows: broth dilution MIC, E. coli EC878. As to conditions: Escherichia coli. The gist of the method: as §2
Another experiment concerns EC882 E. coli imp. The experiment is described as follows: broth dilution MIC, E. coli EC882. As to conditions: Escherichia coli. The essentials:
as §2

In experiment [3] the test system is BS1723 B. subtilis BS168 WT wild type. The experiment is described as follows: broth dilution MIC, B. subtilis BS1723. As to conditions: Bacillus subtilis, BS1723 B. subtilis BS168 WT wild type; read-out: MIC. The essentials: as §2
Another experiment has as its system BS1725 B. subtilis ermC. Put plainly: broth dilution MIC, B. subtilis BS1725. As to conditions: Bacillus subtilis, BS1725 B. subtilis ermC (+ery). The gist of the method: as §2
Where [4] appears, read: S. aureus (Neuman, clinical isolate), round 2.
[5] abbreviates: S. aureus (Newman, clinical isolate), round 1.
The mark [6] stands for this setting: ATCC29213, S. aureus ATCC 29213, read-out: MIC S. aureus (ATCC 29213).
[7] abbreviates: S. aureus 506, read-out: MIC S. aureus (506).
[8] abbreviates: S. aureus 1708, read-out: MIC S. aureus (1708).
Where [9] appears, read: USA300, S. aureus USA300, read-out: MIC S. aureus (USA300).
Setting [10] is: S. pneumoniae 160, read-out: MIC S. pneumonae (160).
The mark [11] stands for this setting: S. pneumoniae 1509, read-out: MIC S. pneumoniae (1509).
[12] abbreviates: S. pneumoniae 1533, read-out: MIC S. pneumoniae (1533).
Setting [13] is: S. pneumoniae 1537, read-out: MIC S. pneumoniae (1537).
Setting [14] is: S. pneumoniae 49619, read-out: MIC S. pneumoniae (49619).
[15] abbreviates: H. influenzae 49247, read-out: MIC H. influenzae (49247).
Where [16] appears, read: H. influenzae 49766, read-out: MIC H. influenzae (49766).

Molecules are shown by their SMILES. Converted amounts (≈) assume the structure as drawn. Read-outs that look alike come from different tables or passages of the source. Bounds are passed on as bounds.

On to `CC[C@H]1OC(=O)[C@H](Cc2ccccc2)C(=O)[C@H](C)[C@@H](O[C@@H]2OC(C)CC(N(C)C)C2O)[C@](C)(OC)C[C@@H](C)CN[C@H](C)[C@H]2N(CCCCn3cc(-c4cccc(N)c4)nn3)C(=O)O[C@]12C` (stereo partly shown) [FSM-56158], for which the MIC stood at 8 µg/mL (≈ 8.85 µM) in experiment [1] (setting [4]) and 32 µg/mL (≈ 35.4 µM) in the experiment on E. coli (MC4100) (round 2, read-out: MIC).

In the case of `CC[C@H]1OC(=O)[C@H](C)C(=O)[C@H](C)[C@@H](O[C@@H]2OC(C)CC(N(C)C)C2O)[C@](C)(OC)C[C@@H](C)CN[C@H](C)[C@H]2N(CCCCCn3cc(-c4ccccn4)nn3)C(=O)O[C@]12C` (stereo partly shown) [FSM-40350], the MIC in [1] (setting [5]) worked out at 2 µg/mL (≈ 2.42 µM); with E. coli (MC4100) (round 1, read-out: MIC), 16 µg/mL (≈ 19.3 µM).

Regarding `C=CC[C@H]1C(=O)O[C@H](CC)[C@@]2(C)OC(=O)N(CCCCn3cc(-c4cccc(N)c4)nn3)[C@@H]2[C@@H](C)NC[C@H](C)C[C@@](C)(OC)[C@H](O[C@@H]2OC(C)CC(N(C)C)C2O)[C@@H](C)C1=O` (stereo partly shown) [FSM-56156], the MIC in experiment [1] (setting [4]) was 2 µg/mL (≈ 2.34 µM); in the experiment on E. coli (MC4100) (round 2, read-out: MIC), 4 µg/mL (≈ 4.68 µM); in the experiment with E. coli strains, 16 µg/mL (≈ 18.7 µM); with S. aureus strains (setting [6]), 4 µg/mL (≈ 4.68 µM); with S. aureus strains (setting [7]), greater than 32 µg/mL; with S. aureus strains (setting [8]), 4 µg/mL (≈ 4.68 µM). For the same compound, the MIC is 8 µg/mL (≈ 9.37 µM) in the experiment with S. aureus strains (setting [9]); 0.25 µg/mL (≈ 0.293 µM) in the experiment on S. pneumoniae strains (setting [10]); 8 µg/mL (≈ 9.37 µM) in the experiment with S. pneumoniae strains (setting [11]); greater than 32 µg/mL with S. pneumoniae strains (setting [12]); greater than 32 µg/mL in the experiment on S. pneumoniae strains (setting [13]); 1 µg/mL (≈ 1.17 µM) in the experiment on S. pneumoniae strains (setting [14]). Further, the MIC with E. faecalis strains stood at 1 µg/mL (≈ 1.17 µM); with A. baumannii strains, 32 µg/mL (≈ 37.5 µM); in the experiment with K. pneumoniae strains, 4 µg/mL (≈ 4.68 µM); in the experiment on H. influenzae strains (setting [15]) it was 2 µg/mL (≈ 2.34 µM); in the experiment with H. influenzae strains (setting [16]) it was 8 µg/mL (≈ 9.37 µM).

Regarding `CC[C@H]1OC(=O)CC(=O)[C@H](C)[C@@H](O[C@@H]2OC(C)CC(N(C)C)C2O)[C@](C)(OC)C[C@@H](C)CN[C@H](C)[C@H]2N(CCCCn3cc(-c4ccccn4)nn3)C(=O)O[C@]12C` (stereo partly shown) [FSM-56139], the MIC in experiment [1] (setting [4]) came out at 16 µg/mL (≈ 20 µM); in the experiment on E. coli (MC4100) (round 2, read-out: MIC) it was 32 µg/mL (≈ 40 µM).

With `CC[C@H]1OC(=O)[C@H](C)C(=O)[C@H](C)[C@@H](O[C@@H]2OC(C)CC(N(C)C)C2O)[C@](C)(OC)C[C@@H](C)CN[C@H](C)[C@H]2N(CCCn3cc(-c4ccccn4)nn3)C(=O)O[C@]12C` (stereo partly shown) [FSM-40348], the MIC in experiment [1] (setting [5]) was 8 µg/mL (≈ 10 µM); in the experiment with E. coli (MC4100) (round 1, read-out: MIC), greater than 32 µg/mL.

Take `CC[C@H]1OC(=O)[C@H](C)C(=O)[C@H](C)[C@@H](O[C@@H]2OC(C)CC(N(C)C)C2O)[C@](C)(OC)C[C@@H](C)CN[C@H](C)[C@H]2N(CCCCn3cc(-c4nccs4)nn3)C(=O)O[C@]12C` (stereo partly shown) [FSM-20708]: the MIC in experiment [2] stood at 2 µg/mL (≈ 2.44 µM); with EC107 E. coli ATCC25922, 8 µg/mL (≈ 9.76 µM); in the experiment on EC878 E. coli tolC, 1 µg/mL (≈ 1.22 µM); in the experiment on EC882 E. coli imp, 0.0625 µg/mL (≈ 0.0762 µM); in [3], 1 µg/mL (≈ 1.22 µM); in the experiment with BS1725 B. subtilis ermC, 16 µg/mL (≈ 19.5 µM). In addition, the MIC against E. coli strains is 4 µg/mL (≈ 4.88 µM); in the experiment with S. aureus strains (setting [6]), 2 µg/mL (≈ 2.44 µM); in the experiment on S. aureus strains (setting [7]), greater than 32 µg/mL; with S. aureus strains (setting [8]), 2 µg/mL (≈ 2.44 µM); with S. aureus strains (setting [9]) it was 2 µg/mL (≈ 2.44 µM); in the experiment with S. pneumoniae strains (setting [10]), 0.125 µg/mL (≈ 0.152 µM). Further, the MIC in the experiment on S. pneumoniae strains (setting [11]) was 4 µg/mL (≈ 4.88 µM); in the experiment on S. pneumoniae strains (setting [12]), greater than 32 µg/mL; with S. pneumoniae strains (setting [13]), greater than 32 µg/mL; in the experiment with S. pneumoniae strains (setting [14]) it was 0.5 µg/mL (≈ 0.61 µM); with E. faecalis strains it was 0.5 µg/mL (≈ 0.61 µM); in the experiment with A. baumannii strains, 16 µg/mL (≈ 19.5 µM). For the same compound, the MIC in the experiment on K. pneumoniae strains is 2 µg/mL (≈ 2.44 µM); in the experiment with H. influenzae strains (setting [15]), 0.25 µg/mL (≈ 0.305 µM); in the experiment on H. influenzae strains (setting [16]), 2 µg/mL (≈ 2.44 µM).
